# Results reported in US8992891B2, “Therapeutic approaches for treating CMT and related disorders” (Pharnext, priority 2007, dated 2015).
# Key:
# PMP22 mRNA = PMP22 mRNA level by quantitative RT-PCR after drug stimulation of rat Schwann cell primary culture; format: cell-based; set-up: key: +: significantly decreases PMP22 levels compared to control; conditions: rat primary Schwann cells, drug incubation 24 hrs
# Procedure: After cells being platted in 12 well-dishes, the medium is replaced by a defined medium consisting in a mix of DMEM-F12 (Invitrogen #21331020) complemented by 1% of N2 supplement (Invitrogen #17502), 1% L-Glutamine (Invitrogen #25030024) 2.5% FBS (Sciencell #0025), 0.02 μg/ml of corticosterone (Sigma #C2505), 4 μM Forskolin and 50 μg/ml of gentamycin. Growth factors are not added to this medium, to promote SC differentiation
# 24 hours later, the medium is replaced by a defined medium (DMEM-F12) complemented with 1% Insulin-Transferrin-Selenium-X (ITS, Invitrogen #51300), 16 μg/ml of Putrescine (Sigma #P5780), 0.02 μg/ml of corticosterone and 50 μg/ml of gentamicin. At this step, neither progesterone nor forskolin are present in the medium.
# One day later, Schwann cells are stimulated by combinations of drugs or drugs alone during 24 hrs (3 wells/condition). The preparation of each compound is performed just prior to its addition to the cell culture medium.
# Drugs are added to a defined medium composed of DMEM-F12, with 1% Insulin-Transferrin-Selenium-X (ITS, Invitrogen #51300), 16 μg/ml of Putrescine, 0.02 μg/ml of corticosterone, 10 nM Progesterone and 50 μg/ml of gentamicin. The absence of Forskolin during drug stimulation avoids adenylate cyclase saturation.
# Quantitative RT-PCR is used to compare the levels of PMP22 mRNA after drug stimulation, relative with housekeeping Ribosomal L13A mRNA in rat Schwann cell primary culture.
# After rinsing with cold sterilized PBS, total RNAs from each cell sample are extracted and purified from SC using the Qiagen RNeasy micro kit (Qiagen #74004). Nucleic acids are quantified by Nanodrop spectrophotometer using 1 μl of RNA sample. The RNA integrity is determined through a BioAnalyzer (Agilent) apparatus.
# RNAs are reverse-transcribed into cDNA according to standard protocol. cDNA templates for PCR amplification are synthesized from 200 ng of total RNA using SuperScript II reverse-transcriptase (Invitrogen #18064-014) for 60 min at 42° C. in the presence of oligo(dT), in a final volume of 20 μl.
# cDNAs are subjected to PCR amplification using the ? LightCycler® 480 ? system (Roche Molecular Systems Inc.) Each cDNA are diluted five times before being used for PCR amplification. 2.5 μl of this cDNAs enters the PCR reaction solution (final volume of 10 μl). Preliminary experiments ensured that quantitation was done in the exponential phase of the amplification process for both sequences and that expression of the reference gene was uniform in the different culture conditions.
# PCR reaction is performed by amplification of 500 nM of forward primer of rat PMP22 (NM_017037), 5-GGAAACGCGAATGAGGC-3 (SEQ ID NO: 1), and 500 nM of reverse primer 5-GTTCTGTTTGGTTTGGCTT-3 (SEQ ID NO: 2) (amplification of 148-bp). A 152-bp fragment of the RPL13A ribosomal (NM_173340) RNA is amplified in parallel in separate reactions for normalization of the results by using 500 nM of forward primer 5-CTGCCCTCAAGGTTGTG-3 (SEQ ID NO: 3), and 500 nM of reverse primer 5-[…]-3 (SEQ ID NO: 4).
# We used FRET chemistry to perform RT-Q-PCR analysis. FRET probes are composed of 0.3 μM of Pmp22-FL-5-[…] (SEQ ID NO: 5) or Rpl13A-FL-5-TCGGGTGGAAGTACCAGCC (SEQ ID NO: 6), labelled at their 3′ end with a donor fluorophore dye (Fluorescein). 0.15 μM Red640 probes are defined as follows: Pmp22-red-5′-[…]- (SEQ ID NO: 7) or Rpl13A-red-5′-[…] (SEQ ID NO: 8), labelled at their 5′ end with an acceptor fluorophore dye (Rhodamine Red 640).
# Each PCR reaction contained 2.5 μl cDNA template in a final volume of 10 μl of master mix kit (Roche #04-887301001).
# The following PCR conditions are used: 10 sec at 95° C., 10 sec at 63° C. and 12 sec at 72° C. and 30 sec at 40° C. (Forty amplification cycles). The relative levels of PMP22 gene expression is measured by determining the ratio between the products generated from the target gene PMP22 and the endogenous internal standard RPL13A. […]
# [1] = system: hemizygous PMP22 transgenic rat (CMT rat); assay: Morphometrical analysis of hindlimb tissues and body weight in CMT rats; conditions: CMT female rats, end of study, versus control WT rats
Structure (SMILES),mRNA (PMP22 expression decrease) (PMP22 mRNA),deficiencies of sciatic nerve and soleus muscle masses [1]
CC[C@@H]1C(=O)OC[C@@H]1Cc1cncn1C [Pilocarpine],+,
Cn1cc[nH]c1=S [Methimazole],+,completely corrected
